# Test results reported in PMC12129716, “Isolation of a Unique Monoterpene Diperoxy Dimer From Ziziphora clinopodioides subsp. bungeana Together With Triterpenes With Antidiabetic Properties” (Phytochemical Analysis, 2025).
# Entries after “also recorded” stand apart in the source; their conditions may differ. Like-named read-outs stand apart in the source and are kept apart here.
# Tests used:
# [1] = tested on: α‐glucosidase; test: α-Glucosidase inhibitory assay (p-nitrophenyl-α-D-glucopyranoside, microplate reader); type: biochemical; conditions: mean ± SEM, three independent experiments in triplicate
# Protocol: After incubation (15 min, 37°C), the reaction was initiated by adding 20 μL of 2.5‐mM p‐nitrophenyl‐α‐D‐glucopyranoside. After an additional 15 min at 37°C, the reaction was stopped with 80 μL of 0.2‐M Na2CO3. The released p‐nitrophenol was quantified spectrophotometrically at λ 405 nm using a microplate reader. One set of mixtures prepared with an equivalent volume of methanol instead of the test samples was used as a control. Another set of mixtures prepared with an equivalent volume of phosphate buffer instead of the enzyme was used as a blank. The inhibition of the enzyme (%) was calculated according to the formula: […]. […] The results are summarized in Table 2 and expressed as the mean ± SEM for three independent experiments measured in triplicate.
# [2] = tested on: GLUT4; test: GLUT4 translocation to plasma membrane fraction in C2C12 myotubes (Western blot); type: cell-based, mouse; conditions: 5 μM, 24 h, C2C12 differentiated myotubes, vs DMSO control
# Protocol: The C2C12 cell line was incubated in containers with a surface area of 75 cm^2 (tissue‐culture treated) to 100% confluence in full serum DMEM High Glucose medium. Then the culture medium was changed to DMEM High Glucose medium, supplemented with antibiotics, and 2% horse serum (Biosera) to start the differentiation of myoblasts into myocytes. The medium was renewed every 2 days, and the formation of myocytes was observed using a microscope. After 6 days of differentiation, the culture medium was changed to DMEM High Glucose serum‐free medium, and the test compounds were added at a non‐toxic concentration of 5 μM dissolved in DMSO. The effect of the test compounds on the viability of C2C12 myocytes was determined using a WST‐1 kit (Roche, Basel, Switzerland), according to the manufacturer's manual. The final concentration of DMSO in the medium was 0.1% (v/v). […]
# The effects of the test compounds on the protein expression of GLUT4 in the total cellular fraction and on GLUT4 translocation to the plasma membrane fraction were measured using PAGE and Western blot with specific antibodies. […]
# To quantify the effects of the test compounds on GLUT4 expression and translocation, the optical densities (OD) of the corresponding bands shown by Western blot analysis were calculated and expressed as a ratio of ODGLUT4 / ODβ‐actin for GLUT4 expression in whole‐cell lysates. […]
# [3] = target: protein tyrosine phosphatase 1B (PTP1B); conditions: cited from earlier work
# [4] = tested on: L6 myotube cells; parameters: method as in PMID 19548274; conditions: cited from earlier work
# [5] = tested on: GLUT4; parameters: method as in PMID 17201692; conditions: 3T3-L1 adipocytes; cited from earlier work
# [6] = tested on: α‐glucosidase; conditions: cited from earlier work
Compound,% of inhibition (200 μM) [1] [%],IC50 [1] [µM],also measured
"CC1(C)CC[C@]2(C(=O)O)CC[C@]3(C)C(=CC(=O)C4[C@@]5(C)CC[C@H](O)C(C)(C)C5CC[C@]43C)C2C1 (some centres unmarked) [Compound 8, 11‐oxooleanolic acid]",49.9 ± 3.3,> 200,–
"C[C@@H]1CC[C@]2(C(=O)O)CC[C@]3(C)C(=CC[C@@H]4[C@@]5(C)CC[C@H](O)C(C)(C)[C@@H]5CC[C@]43C)[C@@H]2[C@]1(C)O [Compound 5, pomolic acid]",41.9 ± 4.1,> 200,GLUT4 translocation (GLUT4/ATPA1 ratio in plasma membrane fraction) [2]: increased; also recorded: tripling; IC50 ([3]; read-out: PTP1B IC50): 3.9 ± 0.8 µM; 2-deoxy-D-[3H]-glucose uptake increase [4]: 1.6 fold
"CC1(C)CC[C@]2(C(=O)O)CC[C@]3(C)C(=CC[C@@H]4[C@@]5(C)CC[C@H](O)C(C)(C)[C@@H]5CC[C@]43C)[C@@H]2C1 [Compound 10, oleanolic acid]",67.5 ± 1.4,–,–
"C[C@@H]1[C@H](O)C[C@]2(C(=O)O)CC[C@]3(C)C(=CCC4[C@@]5(C)CC[C@H](O)C(C)(C)C5CC[C@]43C)C2[C@H]1C (stereo partly drawn) [Compound 6, 21α‐hydroxyursolic acid]",26.8 ± 2.1,> 200,–
"CC1=C2C=C3CCC4C(C)(C)CCC[C@@]4(C)C3CC2OC1=O (some centres unmarked) [Compound 2, jolkinolide E]",25.0 ± 1.4,> 200,–
"CC1CC=C(C(C)(C)OOC23CC(C)CC=C2C(C)(C)OO3)C(=O)C1 (centres unmarked) [Compound 1, ziziphora diperoxy dimer]",6.0 ± 1.9,> 200,–
"C[C@@H]1CC[C@]2(C(=O)O)CC[C@]3(C)C(=CC(=O)C4[C@@]5(C)CC[C@H](O)C(C)(C)C5CC[C@]43C)C2[C@H]1C (some centres unmarked) [Compound 7, 11‐oxoursolic acid]",–,163 ± 15.4,–
"C[C@H]1[C@H](C)CC[C@]2(C(=O)O)CC[C@]3(C)C(=CC[C@@H]4[C@@]5(C)CC[C@H](O)C(C)(C)[C@@H]5CC[C@]43C)[C@H]12 [Compound 9, ursolic acid]",65.7 ± 4.1,–,IC50 ([3]; read-out: PTP1B IC50): 3.1 ± 0.2 µM; 2-deoxy-D-[3H]-glucose uptake increase [4]: 1.84 fold; Translocation of GLUT4 [5]: enhanced
CC1(C)[C@@H](O)CC[C@]2(C)[C@H]3C(=O)C=C4[C@@H]5C[C@@](C)(C(=O)O)CC[C@]5(C)CC[C@@]4(C)[C@]3(C)CC[C@@H]12 [glycyrrhetic acid],–,–,α-Glucosidase inhibitory activity [6]: inactive
"C=C(C)[C@@H]1CC[C@]2(C(=O)O)CC[C@]3(C)[C@H](CC[C@@H]4[C@@]5(C)CC[C@H](O)C(C)(C)[C@@H]5CC[C@]43C)[C@@H]12 [Compound 11, betulinic acid]",64.4 ± 2.0,45.3 ± 1,"GLUT4 translocation (GLUT4/ATPA1 ratio in plasma membrane fraction) [2]: no activity; PTP1B IC50 [3]: 0.7 ± 0.03 µg/mL; IC50 ([3]; conversion of the μg/mL value, read-out: PTP1B IC50 (converted to μM)): 1.53 µM"
"C=C(C)[C@@H]1CC[C@]2(CO)CC[C@]3(C)[C@H](CC[C@@H]4[C@@]5(C)CC[C@H](O)C(C)(C)[C@@H]5CC[C@]43C)[C@@H]12 [Compound 3, betulin]",24.0 ± 6.0,> 200,–
"C=C(CO)[C@@H]1CC[C@]2(C(=O)O)CC[C@]3(C)C(CCC4[C@@]5(C)CC[C@H](O)C(C)(C)C5CC[C@]43C)C12 (some centres unmarked) [Compound 4, 30‐hydroxybetulinic acid]",34.0 ± 4.9,> 200,–
